According to ChEMBL document CHEMBL1909046, “DrugMatrix in vitro pharmacology data”:
*1 amine or outer side, *2 acyl side, *3 side chain or, on linkers, in order; H or OH if unused. Where a SMILES comes first, the peptide text is derived from it. Bridges are numbered along the chain shown (N, C = ends). Roman numbers before positions name the chains, in order. [ ]: non-standard residue; d: D form. Actinocin(1to9) = Cc1c2oc3c(C)ccc(C(=O)[*:2])c3nc-2c(C(=O)[*:1])c(N)c1=O; NMeV = CN[C@H](C(=O)O)C(C)C; Sar = CNCC(=O)O

Key:
Neutrophil elastase = biological target: T1, Neutrophil elastase (Homo sapiens, UniProt P08246); type: tissue-based;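 also: inhibition of neutrophil elastase enzyme activity, measured with a p-nitroanilide-linked peptide substrate; in other assays of this panel Not Active means under 50% inhibition at 10 µM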
T1 sequence (P08246 whole entry): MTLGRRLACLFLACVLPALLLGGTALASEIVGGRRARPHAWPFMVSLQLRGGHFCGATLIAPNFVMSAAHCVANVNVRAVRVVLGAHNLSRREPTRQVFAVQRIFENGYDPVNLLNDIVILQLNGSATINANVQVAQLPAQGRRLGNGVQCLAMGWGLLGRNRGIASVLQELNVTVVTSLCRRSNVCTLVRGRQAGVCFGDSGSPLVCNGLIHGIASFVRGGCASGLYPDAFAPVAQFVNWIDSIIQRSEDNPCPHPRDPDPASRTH

[1] = biological target: T2, Alpha-1A adrenergic receptor (Rattus norvegicus, UniProt P43140); assay: DRUGMATRIX: Alpha-1A adrenergic receptor radioligand binding (ligand: prazosin); type: cell membranes, Wistar, Submaxillary gland, Membrane; conditions: Not Active = under 50% inhibition at 10 µM
T2 sequence (P43140 whole entry): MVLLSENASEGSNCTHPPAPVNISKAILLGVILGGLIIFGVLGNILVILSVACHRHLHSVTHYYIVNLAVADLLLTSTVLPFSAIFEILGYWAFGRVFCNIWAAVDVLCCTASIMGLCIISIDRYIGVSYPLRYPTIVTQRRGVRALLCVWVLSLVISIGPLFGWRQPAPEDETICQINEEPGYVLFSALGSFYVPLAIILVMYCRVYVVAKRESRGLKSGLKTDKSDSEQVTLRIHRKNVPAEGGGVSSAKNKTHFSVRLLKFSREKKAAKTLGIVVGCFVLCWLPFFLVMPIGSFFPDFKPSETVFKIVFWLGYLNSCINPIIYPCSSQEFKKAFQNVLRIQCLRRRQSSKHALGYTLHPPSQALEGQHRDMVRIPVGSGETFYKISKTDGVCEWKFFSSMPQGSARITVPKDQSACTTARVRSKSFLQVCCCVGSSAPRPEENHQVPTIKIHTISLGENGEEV

[2] = biological target: Mitogen-activated protein kinase 1 (Homo sapiens, UniProt P28482); assay: DRUGMATRIX: Protein Serine/Threonine Kinase, ERK2 enzyme inhibition (substrate: Myelin Basic Protein); parameters: species or system Escherichia coli; conditions: Not Active = under 50% inhibition at 10 µM
Carbonic anhydrase 2 = Carbonic anhydrase 2 (Homo sapiens, UniProt P00918); assay: DRUGMATRIX: Carbonic Anhydrase II enzyme inhibition (substrate: 4-Nitrophenyl acetate (4-NPA)); type: tissue-based, Erythrocyte; conditions: erythrocyte; Not Active = under 50% inhibition at 10 µM
[3] = biological target: T3, Muscarinic acetylcholine receptor M4 (Homo sapiens, UniProt P08173); type: cell membranes, CHO-K1, Membrane; conditions: cho-k1; also: in other assays of this panel Not Active means under 50% inhibition at 10 µM
T3 sequence (P08173 whole entry): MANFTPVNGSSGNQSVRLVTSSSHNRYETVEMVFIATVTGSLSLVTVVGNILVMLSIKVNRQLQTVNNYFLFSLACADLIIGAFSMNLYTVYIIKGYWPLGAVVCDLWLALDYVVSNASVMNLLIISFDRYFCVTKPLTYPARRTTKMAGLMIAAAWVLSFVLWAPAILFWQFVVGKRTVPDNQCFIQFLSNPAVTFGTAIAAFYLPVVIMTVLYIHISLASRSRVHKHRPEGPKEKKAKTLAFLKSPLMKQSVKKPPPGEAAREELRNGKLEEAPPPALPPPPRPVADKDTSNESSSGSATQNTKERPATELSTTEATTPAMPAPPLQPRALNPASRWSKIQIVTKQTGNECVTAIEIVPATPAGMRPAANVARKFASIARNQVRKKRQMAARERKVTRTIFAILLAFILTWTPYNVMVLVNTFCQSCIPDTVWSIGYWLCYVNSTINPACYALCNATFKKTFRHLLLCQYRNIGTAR

[4] = biological target: Protein kinase C alpha type (Homo sapiens, UniProt P17252); type: cell-based; conditions: sf9;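 also: inhibition of PKCalpha kinase activity measured in an enzyme assay with histone as the phosphorylation substrate; in other assays of this panel Not Active means under 50% inhibition at 10 µM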
Cytochrome P450 2D6 = Cytochrome P450 2D6 (Homo sapiens, UniProt P10635); conditions: bti-tn-5b1-4; also: in other assays of this panel Not Active means under 50% inhibition at 10 µM
Sequence of Cytochrome P450 2D6 (P10635 whole entry): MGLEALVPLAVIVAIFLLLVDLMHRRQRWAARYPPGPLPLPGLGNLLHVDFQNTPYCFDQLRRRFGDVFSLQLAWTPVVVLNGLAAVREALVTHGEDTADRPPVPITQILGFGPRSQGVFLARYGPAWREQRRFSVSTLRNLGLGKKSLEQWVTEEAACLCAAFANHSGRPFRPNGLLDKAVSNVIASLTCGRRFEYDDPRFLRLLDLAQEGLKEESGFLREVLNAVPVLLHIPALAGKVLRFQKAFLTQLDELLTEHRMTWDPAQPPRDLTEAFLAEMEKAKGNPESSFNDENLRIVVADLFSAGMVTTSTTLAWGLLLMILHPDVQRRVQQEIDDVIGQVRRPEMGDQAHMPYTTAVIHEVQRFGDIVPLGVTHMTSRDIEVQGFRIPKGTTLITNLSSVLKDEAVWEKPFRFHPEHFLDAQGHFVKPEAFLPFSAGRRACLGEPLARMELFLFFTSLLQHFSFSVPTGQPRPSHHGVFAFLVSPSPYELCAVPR

Sequence of Mitogen-activated protein kinase 1 (P28482 whole entry): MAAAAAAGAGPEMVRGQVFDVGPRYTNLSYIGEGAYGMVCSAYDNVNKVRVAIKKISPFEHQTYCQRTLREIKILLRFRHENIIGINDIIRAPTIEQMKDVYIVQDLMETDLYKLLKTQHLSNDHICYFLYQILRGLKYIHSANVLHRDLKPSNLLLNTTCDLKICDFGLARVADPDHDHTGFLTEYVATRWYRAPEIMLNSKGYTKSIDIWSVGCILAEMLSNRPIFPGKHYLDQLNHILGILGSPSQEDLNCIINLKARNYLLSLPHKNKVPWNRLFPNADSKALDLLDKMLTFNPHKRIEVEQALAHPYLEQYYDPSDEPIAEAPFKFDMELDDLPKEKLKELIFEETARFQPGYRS

| Compound | IC50 (Neutrophil elastase) | IC50 [1] | IC50 [2] | IC50 (Carbonic anhydrase 2) | IC50 [3] | IC50 [4] | IC50 (Cytochrome P450 2D6) | Ki (Cytochrome P450 2D6) | Ki (Neutrophil elastase) | Ki [1] | IC50 ([2]; read-out: IC50) | Ki (Carbonic anhydrase 2) | Ki [3] | Ki [4] |
| --- | --- | --- | --- | --- | --- | --- | --- | --- | --- | --- | --- | --- | --- | --- |
| O=C1CC[C@@H](N2C(=O)c3ccccc3C2=O)C(=O)N1 | Not Active | Not Active | Not Active | Not Active | Not Active | Not Active | Not Active | Not Active |  |  |  |  |  |  |
| CC(C)C(Br)C(=O)NC(N)=O (configuration not stated) [BROMISOVALUM] | Not Active | Not Active | Not Active | Not Active | Not Active | Not Active | Not Active | Not Active |  |  |  |  |  |  |
| Cc1ccccc1N1C(=O)c2cc(S(N)(=O)=O)c(Cl)cc2NC1C (configuration not stated) [METOLAZONE] | Not Active | Not Active | Not Active | Not Active | Not Active | Not Active | Not Active | Not Active |  |  |  |  |  |  |
| Cc1ccc2cc3c(ccc4ccccc43)c3c2c1CC3 [3-METHYLCHOLANTHRENE] | Not Active | Not Active | Not Active | Not Active | Not Active | Not Active | Not Active | Not Active |  |  |  |  |  |  |
| Nc1nc2c(ncn2CCC(CO)CO)c(=O)[nH]1 [PENCICLOVIR] | Not Active | Not Active | Not Active | Not Active | Not Active | Not Active | Not Active | Not Active |  |  |  |  |  |  |
| Nc1nc(N)nc(-c2cc(Cl)ccc2Cl)n1.O=C(O)/C=C\C(=O)O [IRSOGLADINE MALEATE] | Not Active | Not Active | Not Active | Not Active | Not Active | Not Active | Not Active | Not Active |  |  |  |  |  |  |
| CCC1(c2ccc(N)cc2)CCC(=O)NC1=O (configuration not stated) [AMINOGLUTETHIMIDE] | Not Active | Not Active | Not Active | Not Active | Not Active | Not Active | Not Active | Not Active |  |  |  |  |  |  |
| Cc1ccc(/N=C/N(C)/C=N/c2ccc(C)cc2C)c(C)c1 [AMITRAZ] | Not Active | Not Active | Not Active | Not Active | Not Active | Not Active | Not Active | Not Active |  |  |  |  |  |  |
| C[C@H](CS)C(=O)N1CCC[C@H]1C(=O)O [CAPTOPRIL] | Not Active | Not Active | Not Active | Not Active | Not Active | Not Active | Not Active | Not Active |  |  |  |  |  |  |
| OC(Cn1cncn1)(Cn1cncn1)c1ccc(F)cc1F [FLUCONAZOLE] | Not Active | Not Active | Not Active | Not Active | Not Active | Not Active | Not Active | Not Active |  |  |  |  |  |  |
| CCCC1O[C@@H]2C[C@H]3[C@@H]4CCC5=CC(=O)C=C[C@]5(C)[C@H]4[C@@H](O)C[C@]3(C)[C@]2(C(=O)CO)O1 (some centres not stated) [BUDESONIDE] | Not Active | Not Active | Not Active | Not Active | Not Active | Not Active | Not Active | Not Active |  |  |  |  |  |  |
| Cc1cc(C2CCCCC2)n(O)c(=O)c1 [CICLOPIROX] | Not Active | Not Active | Not Active | Not Active | Not Active | Not Active | Not Active | Not Active |  |  |  |  |  |  |
| Cc1c(C)c2c(c(C)c1O)CC[C@@](C)(CCC[C@H](C)CCC[C@H](C)CCCC(C)C)O2 [ALPHA-TOCOPHEROL] | Not Active | Not Active | Not Active | Not Active | Not Active | Not Active | Not Active | Not Active |  |  |  |  |  |  |
| Cc1c2oc3c(C)ccc(C(=O)N[C@@H]4C(=O)N[C@H](C(C)C)C(=O)N5CCC[C@H]5C(=O)N(C)CC(=O)N(C)[C@@H](C(C)C)C(=O)O[C@@H]4C)c3nc-2c(C(=O)N[C@@H]2C(=O)N[C@H](C(C)C)C(=O)N3CCC[C@H]3C(=O)N(C)CC(=O)N(C)[C@@H](C(C)C)C(=O)O[C@@H]2C)c(N)c1=O [DACTINOMYCIN] (I: T[dV]P[Sar][NMeV] / II: T[dV]P[Sar][NMeV]; ester I:1-I:C, II:1-II:C; linker I:N-II:N via Actinocin(1to9)) | Not Active | Not Active | Not Active | Not Active | Not Active | Not Active | Not Active | Not Active |  |  |  |  |  |  |
| C[C@H](CCC(=O)O)[C@H]1CC[C@H]2[C@@H]3[C@H](O)C[C@@H]4C[C@H](O)CC[C@]4(C)[C@H]3C[C@H](O)[C@]12C [CHOLIC ACID] | Not Active | Not Active | Not Active | Not Active | Not Active | Not Active | Not Active | Not Active |  |  |  |  |  |  |
| C[C@H]1O[C@@H](O[C@H]2[C@@H](O)C[C@H](O[C@H]3[C@@H](O)C[C@H](O[C@H]4CC[C@@]5(C)[C@H](CC[C@@H]6[C@@H]5C[C@@H](O)[C@]5(C)[C@@H](C7=CC(=O)OC7)CC[C@]65O)C4)O[C@@H]3C)O[C@@H]2C)C[C@H](O)[C@@H]1O [DIGOXIN] | Not Active | Not Active | Not Active | Not Active | Not Active | Not Active | Not Active | Not Active |  |  |  |  |  |  |
| CCCCc1nc(Cl)c(CO)n1Cc1ccc(-c2ccccc2-c2nnn[nH]2)cc1 [LOSARTAN] | Not Active | Not Active | Not Active | Not Active | Not Active | Not Active | Not Active | Not Active |  |  |  |  |  |  |
| CNCCc1ccccn1 [BETAHISTINE] | Not Active | Not Active | Not Active | Not Active | Not Active | Not Active | Not Active | Not Active |  |  |  |  |  |  |
| O=C(O)CCCc1ccc(N(CCCl)CCCl)cc1 [CHLORAMBUCIL] | Not Active | Not Active | Not Active | Not Active | Not Active | Not Active | Not Active | Not Active |  |  |  |  |  |  |
| NC(=O)N1c2ccccc2CCc2ccccc21 | Not Active | Not Active | Not Active | Not Active | Not Active | Not Active | Not Active | Not Active |  |  |  |  |  |  |
| NCCCCCC(=O)O [AMINOCAPROIC ACID] | Not Active | Not Active | Not Active | Not Active | Not Active | Not Active | Not Active | Not Active |  |  |  |  |  |  |
| C=C(C)C1(O)OC(=O)C=C1OC (configuration not stated) [PENICILLIC ACID] | Not Active | Not Active | Not Active | Not Active | Not Active | Not Active | Not Active | Not Active |  |  |  |  |  |  |
| CC1(C)O[C@@H]2C[C@H]3[C@@H]4CCC5=CC(=O)CC[C@]5(C)[C@@]4(F)[C@@H](O)C[C@]3(C)[C@]2(C(=O)CCl)O1 [HALCINONIDE] | Not Active | Not Active | Not Active | Not Active | Not Active | Not Active | Not Active | Not Active |  |  |  |  |  |  |
| LIPOPOLYSACCHARIDE E. COLI O55:B5 | Not Active | Not Active |  | Not Active | Not Active | Not Active | Not Active | Not Active | Not Active | Not Active | 321 nM | Not Active | Not Active | Not Active |
